Measured values from patent publication US8877775B2, “Substituted 2-aza-bicyclo[2.2.2]octane-3-carboxylic acid (benzyl-cyano-methyl)-amides inhibitors of cathepsin C” (Boehringer Ingelheim International GmbH, priority 2013, dated 2014).

How the values were obtained:
[1] = biological target: recombinant human DPPI (Cathepsin C) (Homo sapiens (Human), UniProt P53634); test: Inhibition of human DPPI (Cathepsin C); format: biochemical; conditions: substrate Gly-Arg-AMC 50 μM, 30 min, room temperature
Text: Inhibition of Human DPPI (Cathepsin C)
Materials: Microtiterplates (Optiplate-384 F) were purchased from PerkinElmer (Prod. No. 6007270). The substrate Gly-Arg-AMC was from Biotrend (Prod.-No. 808756 Custom peptide). Bovine serum albumin (BSA; Prod. No. A3059) and Dithiothreitol (DTT; Prod. No D0632) were from Sigma. TagZyme buffer was from Riedel-de-Haen (Prod.-No. 04269), NaCl was from Merck (Prod.-No. 1.06404.1000) and morpholinoethane sulfonic acid (MES), was from Serva (Prod.-No. 29834). The DPP1 inhibitor Gly-Phe-DMK was purchased from MP Biomedicals (Prod.-No. 03DK00625). The recombinant human DPPI was purchased from Prozymex. All other materials were of highest grade commercially available.
The following buffers were used: MES buffer: 25 mM MES, 50 mM NaCl, 5 mM DTT, adjusted to pH 6.0, containing 0.1% BSA; TAGZyme Buffer: 20 mM NaH2PO4, 150 mM NaCl adjusted to pH 6.0 with HCl
The recombinant human DPPI was diluted in TAGZyme buffer to 1 U/ml (38.1 μg/ml, respectively), and then activated by mixing in a 1:2 ratio with a Cysteamine aqueous solution (2 mM) and incubating for 5 min at room temperature.
Five uL test compound (final concentration 0.1 nM to 100 μM) in aqua bidest (containing 4% DMSO, final DMSO concentration 1%) were mixed with 10 μL of DPPI in MES buffer (final concentration 0.0125 ng/μL) and incubated for 10 min. Then, 5 μL of substrate in MES buffer (final concentration 50 μM) were added. The microtiter plates were then incubated at room temperature for 30 min. Then, the reaction was stopped by adding 10 μL of Gly-Phe-DMK in MES-buffer (final concentration 1 μM). The fluorescence in the wells was determined using a Molecular Devices SpectraMax M5 Fluorescence Reader (Ex 360 nm, Em 460 nm) or an Envision Fluorescence Reader (Ex 355 nm, Em 460 nm).
The analysis of the data was performed by calculating the percentage of fluorescence in the presence of test compound in comparison to the fluorescence of the vehicle control after subtracting the background fluorescence using the following formula: (RFU(sample)−RFU(background))*100/(RFU(control)−RFU(background))
Data from these calculations were used to generate IC50 values for inhibition of DPPI, respectively.

[2] = biological target: recombinant human Cathepsin K (Homo sapiens (Human), UniProt P43235); test: Inhibition of human Cathepsin K; format: biochemical; conditions: substrate Z-Gly-Pro-Arg-AMC 12.5 μM, 60 min, room temperature
Text: Inhibition of Human Cathepsin K
Materials: Microtiterplates (Optiplate-384 F were purchased from PerkinElmer (Prod. No. 6007270). The substrate Z-Gly-Pro-Arg-AMC was from Biomol (Prod.-No. P-142). L-Cysteine (Prod. No. 168149) was from Sigma. Sodium actetate was from Merck (Prod.-No. 6268.0250), EDTA was from Fluka (Prod.-No. 03680). The inhibitor E-64 was purchased from Sigma (Prod.-No. E3132). The recombinant human Cathepsin K proenzyme was purchased from Biomol (Prod. No. SE-367). All other materials were of highest grade commercially available.
The following buffers were used: Activation buffer: 32.5 mM sodium acetate, adjusted to pH 3.5 with HCl; Assay buffer: 150 mM sodium acetate, 4 mM EDTA, 20 mM L-Cysteine, adjusted to pH 5.5 with HCl,
To activate the proenzyme, 5 μl procathepsin K were mixed with 1 ul activation buffer, and incubated at room temperature for 30 min.
5 μL test compound (final concentration 0.1 nM to 100 μM) in aqua bidest (containing 4% DMSO, final DMSO concentration 1%) were mixed with 10 uL of Cathepsin K in assay buffer (final concentration 2 ng/μL) and incubated for 10 min. Then 5 μL of substrate in assay buffer (final concentration 12.5 μM) were added. The plates were then incubated at room temperature for is 60 min. Then, the reaction was stopped by adding 10 μL of E64 in assay buffer (final concentration 1 μM). The fluorescence in the wells was determined using a Molecular Devices SpectraMax M5 Fluorescence Reader (Ex 360 nm, Em 460 nm).
Each assay microtiter plate contains wells with vehicle controls (1% DMSO in bidest) as reference for non-inhibited enzyme activity (100% Ctl; high values) and wells with inhibitor (E64 in bidest+1% DMSO, final concentration 1 μM) as controls for background fluorescence (0% Ctl; low values). The analysis of the data was performed by calculating the percentage of fluorescence in the presence of test compound in comparison to the fluorescence of the vehicle control after subtracting the background fluorescence: (RFU(sample)−RFU(background))*100/(RFU(control)−RFU(background))
Data from these calculations were used to generate IC50 values for inhibition of Cathepsin K, respectively.

[3] = Metabolic stability with human liver microsomes; format: in vitro ADME; conditions: pH 7.6; pooled human liver microsomes, 37° C., 1 μM test compound, 1 mg/ml protein, NADPH; read-out: In vitro stability in human liver microsome incubations t1/2
Method: Determination of Metabolic Stability with Human Liver Microsomes
The metabolic degradation of the test compound is assayed at 37° C. with pooled human liver microsomes. The final incubation volume of 100 μl per time point contains TRIS buffer pH 7.6 (0.1 M), magnesium chloride (5 mM), microsomal protein (1 mg/ml) and the test compound at a final concentration of 1 μM. Following a short preincubation period at 37° C., the reactions are initiated by addition of beta-nicotinamide adenine dinucleotide phosphate, reduced form (NADPH, 1 mM) and terminated by transfering an aliquot into acetonitrile after different time points. Additionally, the NADPH-independent degradation is monitored in incubations without NADPH, terminated at the last time point. The [%] remaining test compound after NADPH independent incubation is reflected by the parameter c(control) (metabolic stability). The quenched incubations are pelleted by centrifugation (10′000 g, 5 min). An aliquot of the supernatant is assayed by LC-MS/MS for the amount of parent compound.
The half-life (t1/2 INVITRO) is determined by the slope of the semilogarithmic plot of the concentration-time profile. The intrinsic clearance (CL_[…]) is calculated by considering the amount of protein in the incubation: CL_[…][μl/min/mg protein]=(In 2/(half-life[min]*protein content[mg/ml]))*1′000. The half-life (t1/2 INVITRO) values of selected compounds in the metabolic stability assay described above are listed in the following table

Sequence of recombinant human Cathepsin K (P43235 115-329): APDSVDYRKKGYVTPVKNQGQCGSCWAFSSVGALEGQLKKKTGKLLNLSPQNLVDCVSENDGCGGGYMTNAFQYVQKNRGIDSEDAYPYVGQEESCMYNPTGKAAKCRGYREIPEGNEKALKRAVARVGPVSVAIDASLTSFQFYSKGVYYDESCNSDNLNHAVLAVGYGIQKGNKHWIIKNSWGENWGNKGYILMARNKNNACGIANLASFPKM
Sequence of recombinant human DPPI (Cathepsin C) (P53634 231-394): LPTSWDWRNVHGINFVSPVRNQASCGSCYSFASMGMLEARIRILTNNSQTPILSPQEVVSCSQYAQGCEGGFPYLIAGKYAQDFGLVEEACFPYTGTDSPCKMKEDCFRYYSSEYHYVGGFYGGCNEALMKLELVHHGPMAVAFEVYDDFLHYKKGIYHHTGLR
Sequence of recombinant human DPPI (Cathepsin C) (P53634 395-463): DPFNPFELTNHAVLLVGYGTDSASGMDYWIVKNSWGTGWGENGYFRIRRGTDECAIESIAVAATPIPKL
Sequence of recombinant human DPPI (Cathepsin C) (P53634 25-134): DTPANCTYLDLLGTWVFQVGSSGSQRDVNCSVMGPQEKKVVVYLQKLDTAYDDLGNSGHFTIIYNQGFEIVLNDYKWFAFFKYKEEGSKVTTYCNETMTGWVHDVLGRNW

| SMILES | IC50 [1] [nM] | IC50 [2] [nM] | half-life at 1 μM [3] [h] |
| --- | --- | --- | --- |
| N#C[C@H](Cc1ccc(-c2ccc3c(c2)NC(=O)C3)cc1)NC(=O)[C@H]1NC2CCC1CC2 [Example 2, (2S)—N-[(1S)-cyano-2-[4-(2-oxoindolin-6-yl)phenyl]ethyl]-3-azabicyclo[2.2.2]octane-2-carboxamide] | 50.1 | 4200 | 2 |
| CN1C(=O)Cc2ccc(-c3ccc(C[C@@H](C#N)NC(=O)[C@H]4N[C@H]5CC[C@@H]4CC5)cc3)cc21 [Example 4] | 32.2 | 6300 | 1.47 |
| N#Cc1ccc(-c2ccc(C[C@@H](C#N)NC(=O)[C@H]3N[C@H]4CC[C@@H]3CC4)cc2)cc1F [Example 7, (2S)—N-[(1S)-1-cyano-2-[4-(4-cyano-3-fluoro-phenyl)phenyl]ethyl]-3-azabicyclo[2.2.2]octane-2-carboxamide] | 66.4 | 5700 | > 2.17 |
| CS(=O)(=O)c1cc(-c2ccc(C[C@@H](C#N)NC(=O)[C@H]3NC4CCC3CC4)cc2)ccc1C#N [Example 8] | 70.2 | 5300 | > 2.17 |
| CS(=O)(=O)c1cccc(-c2ccc(C[C@@H](C#N)NC(=O)[C@H]3NC4CCC3CC4)cc2)c1 [Example 10] | 73.5 | 5300 | > 2.17 |
| N#C[C@H](Cc1ccc(-c2ccc3c(c2)CNC3=O)cc1)NC(=O)[C@H]1NC2CCC1CC2 [Example 11] | 86.7 | 11000 | > 2.17 |
| CS(=O)(=O)Nc1cccc(-c2ccc(C[C@@H](C#N)NC(=O)[C@H]3NC4CCC3CC4)cc2)c1 [Example 12] | 97.4 | 9900 | 1.07 |
